# Activity calls are given as the source filed them.
# Assays:
# [1] = HGIII-sPLA2 enzyme inhibition potency – biochemical, QFRET, IC50, dose response (AID 743457);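 also: green fluorescence rise as the enzyme cleaves BODIPY PC-A2 in liposomes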
# [2] = potency of ADAM10 substrate cleavage blockers – biochemical, QFRET, dose response (AID 743254);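 also: ADAM10 enzyme with the DM2 quenched FRET peptide as substrate; EDANS fluorescence gain as the protease cuts the substrate; inhibitor potency against ADAM10 proteolytic activity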
# [3] = target: Disintegrin and metalloproteinase domain-containing protein 17 (Homo sapiens, UniProt P78536); test: inhibition of ADAM17 substrate cleavage – biochemical, quenched FRET substrate, counter-screen for ADAM10 exosite inhibitor project, dose response (AID 743253)
# [4] = Luminescence Cell-Based Dose Retest to Confirm Inhibitors of Cancer Stem Cells. [Related pubchem assays (depositor defined):AID2717, AID2721]; type: functional; details: Homo sapiens
# [5] = target: T1, Long-chain-fatty-acid--AMP ligase FadD28 (Mycobacterium tuberculosis, UniProt P9WQ59); test: Fluorescence polarization aasay to screen for inhibitors that compete for the binding of FadD28 to a bisubstrate Measured in Biochemical System Using Plate Reader - 2147-01_Inhibitor_Dose_CherryPick_Activity.; type: functional, Mycobacterium tuberculosis H37Rv
# T1 sequence (P9WQ59 whole entry): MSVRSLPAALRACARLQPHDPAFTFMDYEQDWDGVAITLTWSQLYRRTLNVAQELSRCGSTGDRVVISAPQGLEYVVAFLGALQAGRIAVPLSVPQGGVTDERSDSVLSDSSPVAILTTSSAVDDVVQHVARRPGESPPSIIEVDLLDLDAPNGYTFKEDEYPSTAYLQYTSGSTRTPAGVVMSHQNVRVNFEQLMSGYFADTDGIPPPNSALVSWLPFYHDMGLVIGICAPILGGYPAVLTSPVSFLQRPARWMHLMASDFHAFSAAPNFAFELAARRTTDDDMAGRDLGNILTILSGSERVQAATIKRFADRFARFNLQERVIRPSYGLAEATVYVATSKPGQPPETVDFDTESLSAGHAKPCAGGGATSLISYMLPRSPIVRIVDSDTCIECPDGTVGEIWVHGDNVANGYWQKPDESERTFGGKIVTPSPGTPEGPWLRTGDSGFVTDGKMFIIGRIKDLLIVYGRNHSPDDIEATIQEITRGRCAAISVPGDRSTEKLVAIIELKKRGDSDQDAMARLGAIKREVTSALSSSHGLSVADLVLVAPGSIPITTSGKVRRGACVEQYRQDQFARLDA
# [6] = target: Cytochrome P450 2C19 (Homo sapiens, UniProt P33261); test: Cytochrome panel assay with activity outcomes. Panel member name: p450-cyp2c19 Compounds with AC50 equal or less than 10 uM are considered active; type: functional; details: read-out: AC50
# [7] = target: T2, Endoribonuclease toxin MazF (Escherichia coli K-12, UniProt P0AE70); test: activation of MazEF endoribonuclease cleavage – biochemical, fluorescence, single-stranded RNA substrate, uHTS hits, dose response (AID 588481); type: functional
# T2 sequence (P0AE70 whole entry): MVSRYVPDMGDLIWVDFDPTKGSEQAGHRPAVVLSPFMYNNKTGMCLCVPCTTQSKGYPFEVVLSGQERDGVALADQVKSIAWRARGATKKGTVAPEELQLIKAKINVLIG
# [8] = target: T2, Endoribonuclease toxin MazF; test: substrate-only fluorescence increase artefacts – biochemical, single-stranded RNase substrate, counter-screen for MazEF activator project, dose response (AID 588502); type: functional
# [9] = target: T3, DNA repair protein RAD52 homolog (Homo sapiens, UniProt P43351); type: functional, biochemical
# T3 sequence (P43351 whole entry): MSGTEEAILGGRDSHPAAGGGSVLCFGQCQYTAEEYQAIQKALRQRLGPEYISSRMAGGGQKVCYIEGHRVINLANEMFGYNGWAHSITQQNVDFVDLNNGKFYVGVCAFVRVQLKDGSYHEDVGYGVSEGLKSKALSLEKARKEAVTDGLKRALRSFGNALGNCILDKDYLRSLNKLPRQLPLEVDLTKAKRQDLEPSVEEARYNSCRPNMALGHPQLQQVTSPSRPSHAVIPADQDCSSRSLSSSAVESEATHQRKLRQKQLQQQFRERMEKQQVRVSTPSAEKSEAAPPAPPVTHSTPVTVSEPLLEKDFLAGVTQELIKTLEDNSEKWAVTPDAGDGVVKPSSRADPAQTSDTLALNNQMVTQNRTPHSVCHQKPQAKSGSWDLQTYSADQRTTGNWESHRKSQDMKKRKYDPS
# [10] = test system: Streptococcus sp. 'group A'; test: Streptococcus pyogenes SK(-)GAS viability under kanamycin – luminescence, BacTiterGlo, confirmation, counter-screen for streptokinase expression inhibitor project, dose response (AID 1900); type: functional, organism-based
# [11] = target: T4, Streptokinase A (Streptococcus pyogenes serotype M1, UniProt P10520); test: viability-normalized secreted streptokinase activity reduction – plasminogen activation absorbance, OD405, dose response (AID 1914); type: functional, Streptococcus pyogenes M1 GAS;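 also: secreted streptokinase activity via plasminogen activation per viability signal from cell pellet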
# T4 sequence (P10520 whole entry): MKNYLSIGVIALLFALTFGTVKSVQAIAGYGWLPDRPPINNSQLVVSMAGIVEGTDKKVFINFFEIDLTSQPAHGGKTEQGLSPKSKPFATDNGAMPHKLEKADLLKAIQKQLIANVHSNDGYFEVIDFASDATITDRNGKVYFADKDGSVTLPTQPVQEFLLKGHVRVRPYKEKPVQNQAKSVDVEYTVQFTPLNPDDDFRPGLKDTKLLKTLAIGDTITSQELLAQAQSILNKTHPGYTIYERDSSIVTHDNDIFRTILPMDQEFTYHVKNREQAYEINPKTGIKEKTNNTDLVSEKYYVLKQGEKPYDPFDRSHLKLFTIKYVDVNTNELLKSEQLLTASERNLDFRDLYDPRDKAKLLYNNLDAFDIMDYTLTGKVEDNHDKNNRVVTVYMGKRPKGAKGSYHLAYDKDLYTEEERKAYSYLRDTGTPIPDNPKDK
# [12] = test system: Streptococcus; test: GAS UMAA2166 growth inhibition – luminescence, BacTiterGlo, counter-screen for streptokinase expression inhibitor project, dose response (AID 1915); type: functional, organism-based;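 also: potency for reduction of bacterial viability or growth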
# [13] = target: T5, Replicative DNA helicase DnaB (Mycobacterium tuberculosis, UniProt P9WMR3); test: DnaB intein splicing inhibitors, dose response, biochemical, cell-free fluorescence (AID 449749); type: functional
# T5 sequence (P9WMR3 whole entry): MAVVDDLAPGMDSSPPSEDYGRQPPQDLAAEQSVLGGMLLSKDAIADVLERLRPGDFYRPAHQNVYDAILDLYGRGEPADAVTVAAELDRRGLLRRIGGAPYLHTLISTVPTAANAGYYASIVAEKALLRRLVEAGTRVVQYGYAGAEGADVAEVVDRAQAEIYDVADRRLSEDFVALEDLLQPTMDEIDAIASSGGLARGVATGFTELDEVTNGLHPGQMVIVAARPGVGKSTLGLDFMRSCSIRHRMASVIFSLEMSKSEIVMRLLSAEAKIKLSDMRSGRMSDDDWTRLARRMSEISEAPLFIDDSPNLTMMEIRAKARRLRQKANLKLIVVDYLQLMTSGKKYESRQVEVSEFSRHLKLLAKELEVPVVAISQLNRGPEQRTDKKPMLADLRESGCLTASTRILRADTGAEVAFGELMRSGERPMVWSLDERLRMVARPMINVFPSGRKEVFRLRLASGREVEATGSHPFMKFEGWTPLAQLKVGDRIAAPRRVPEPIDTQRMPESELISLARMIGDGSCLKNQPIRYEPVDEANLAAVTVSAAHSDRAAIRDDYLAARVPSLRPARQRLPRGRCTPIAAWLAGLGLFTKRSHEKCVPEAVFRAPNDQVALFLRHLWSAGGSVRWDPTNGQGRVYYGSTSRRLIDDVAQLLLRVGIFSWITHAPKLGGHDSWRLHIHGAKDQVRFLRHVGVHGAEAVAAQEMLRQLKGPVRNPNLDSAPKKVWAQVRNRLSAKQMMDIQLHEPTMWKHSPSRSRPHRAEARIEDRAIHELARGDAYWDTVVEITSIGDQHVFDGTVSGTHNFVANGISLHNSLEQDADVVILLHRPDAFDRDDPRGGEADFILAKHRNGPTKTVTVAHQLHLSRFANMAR
# [14] = target: T6, Protein RecA (Mycobacterium tuberculosis, UniProt P9WHJ3); test: Fluorescence Cell-Free Homogeneous Dose Retest to Identify Inhibitors of RecA-Intein Splicing Activity. [Related pubchem assays (depositor defined):AID2097, AID2223, AID489010, AID492950]; type: functional
# T6 sequence (P9WHJ3 whole entry): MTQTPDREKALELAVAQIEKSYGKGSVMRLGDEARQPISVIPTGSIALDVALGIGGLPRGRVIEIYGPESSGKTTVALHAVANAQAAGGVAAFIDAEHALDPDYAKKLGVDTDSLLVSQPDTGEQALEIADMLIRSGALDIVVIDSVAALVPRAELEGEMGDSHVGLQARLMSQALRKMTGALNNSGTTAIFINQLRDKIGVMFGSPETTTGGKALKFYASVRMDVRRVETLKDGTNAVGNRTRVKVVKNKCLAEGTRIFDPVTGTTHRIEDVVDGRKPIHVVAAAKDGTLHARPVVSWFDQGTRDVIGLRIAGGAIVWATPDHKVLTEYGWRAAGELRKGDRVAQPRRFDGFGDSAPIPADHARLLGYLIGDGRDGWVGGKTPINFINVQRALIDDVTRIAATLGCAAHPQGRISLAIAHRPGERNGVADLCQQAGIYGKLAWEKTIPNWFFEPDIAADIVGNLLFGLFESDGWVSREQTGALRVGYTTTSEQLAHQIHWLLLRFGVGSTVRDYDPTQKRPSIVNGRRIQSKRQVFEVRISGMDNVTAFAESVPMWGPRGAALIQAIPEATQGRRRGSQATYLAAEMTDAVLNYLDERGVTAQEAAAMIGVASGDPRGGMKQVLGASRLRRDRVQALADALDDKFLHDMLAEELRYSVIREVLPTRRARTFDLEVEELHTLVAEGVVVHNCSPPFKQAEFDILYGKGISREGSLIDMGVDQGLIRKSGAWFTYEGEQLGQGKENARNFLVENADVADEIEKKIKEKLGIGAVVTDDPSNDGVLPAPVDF
# [15] = target: Paired box protein Pax-8 (Homo sapiens, UniProt Q06710); test: PAX8 transcriptional activity inhibition in RMG-I – RMG-I cells, luciferase, cherry-pick, dose response (AID 687027); type: functional, cell-based;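 also: luciferase reporter driven by Pax8 target thyroperoxidase promoter measured by SteadyGlo luminescence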
# [16] = A2780 cell killing – plate reader, dry powder samples, cytotoxicity control, dose response (AID 743046); type: functional, cell-based
# [17] = OVCAR-3 cell viability loss – plate reader, dry powder samples, PAX8 inhibitor project, dose response (AID 743044); type: functional, cell-based
# [18] = IGROV1 cell killing – plate reader, dry powder samples, PAX8 inhibitor project, dose response (AID 743043); type: functional, cell-based; details: IGROV-1
# [19] = OVCAR8 cell viability loss – plate reader, dry powder samples, PAX8 project, dose response (AID 743197); type: functional, cell-based; details: OVCAR-8
# Sequence of Disintegrin and metalloproteinase domain-containing protein 17 (P78536 whole entry, the tested form may be a part): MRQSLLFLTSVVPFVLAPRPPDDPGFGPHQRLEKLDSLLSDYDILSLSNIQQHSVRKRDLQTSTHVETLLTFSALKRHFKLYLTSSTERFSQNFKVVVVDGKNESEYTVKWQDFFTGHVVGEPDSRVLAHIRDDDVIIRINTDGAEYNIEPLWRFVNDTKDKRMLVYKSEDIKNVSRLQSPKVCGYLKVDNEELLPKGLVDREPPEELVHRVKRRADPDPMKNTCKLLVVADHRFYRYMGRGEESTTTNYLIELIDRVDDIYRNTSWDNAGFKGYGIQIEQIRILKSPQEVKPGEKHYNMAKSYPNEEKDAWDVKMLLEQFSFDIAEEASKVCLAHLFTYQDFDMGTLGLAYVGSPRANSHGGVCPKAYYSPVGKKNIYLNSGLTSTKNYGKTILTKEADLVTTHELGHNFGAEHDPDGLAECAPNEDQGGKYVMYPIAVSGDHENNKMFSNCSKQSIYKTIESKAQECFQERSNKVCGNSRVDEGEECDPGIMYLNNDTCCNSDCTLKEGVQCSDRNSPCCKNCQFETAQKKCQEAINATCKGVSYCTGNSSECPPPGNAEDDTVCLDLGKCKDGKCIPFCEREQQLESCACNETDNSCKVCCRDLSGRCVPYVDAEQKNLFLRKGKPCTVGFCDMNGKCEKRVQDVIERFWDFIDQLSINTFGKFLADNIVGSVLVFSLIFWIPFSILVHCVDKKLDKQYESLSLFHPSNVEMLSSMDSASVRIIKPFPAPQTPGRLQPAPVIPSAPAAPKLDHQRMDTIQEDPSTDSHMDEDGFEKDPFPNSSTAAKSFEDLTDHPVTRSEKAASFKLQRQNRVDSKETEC
# Sequence of Paired box protein Pax-8 (Q06710 whole entry): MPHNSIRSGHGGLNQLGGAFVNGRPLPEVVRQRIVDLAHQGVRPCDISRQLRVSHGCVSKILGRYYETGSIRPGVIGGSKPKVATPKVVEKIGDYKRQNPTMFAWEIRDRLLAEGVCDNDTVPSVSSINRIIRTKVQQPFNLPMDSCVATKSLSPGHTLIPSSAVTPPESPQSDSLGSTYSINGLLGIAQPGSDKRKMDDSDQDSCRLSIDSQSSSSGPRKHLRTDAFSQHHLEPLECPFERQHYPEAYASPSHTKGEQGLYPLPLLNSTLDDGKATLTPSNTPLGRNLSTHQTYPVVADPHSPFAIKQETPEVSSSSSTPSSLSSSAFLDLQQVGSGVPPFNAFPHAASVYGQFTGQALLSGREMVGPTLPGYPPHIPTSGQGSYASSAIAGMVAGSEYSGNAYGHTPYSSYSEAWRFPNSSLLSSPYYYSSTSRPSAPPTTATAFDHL
# Sequence of Cytochrome P450 2C19 (P33261 whole entry): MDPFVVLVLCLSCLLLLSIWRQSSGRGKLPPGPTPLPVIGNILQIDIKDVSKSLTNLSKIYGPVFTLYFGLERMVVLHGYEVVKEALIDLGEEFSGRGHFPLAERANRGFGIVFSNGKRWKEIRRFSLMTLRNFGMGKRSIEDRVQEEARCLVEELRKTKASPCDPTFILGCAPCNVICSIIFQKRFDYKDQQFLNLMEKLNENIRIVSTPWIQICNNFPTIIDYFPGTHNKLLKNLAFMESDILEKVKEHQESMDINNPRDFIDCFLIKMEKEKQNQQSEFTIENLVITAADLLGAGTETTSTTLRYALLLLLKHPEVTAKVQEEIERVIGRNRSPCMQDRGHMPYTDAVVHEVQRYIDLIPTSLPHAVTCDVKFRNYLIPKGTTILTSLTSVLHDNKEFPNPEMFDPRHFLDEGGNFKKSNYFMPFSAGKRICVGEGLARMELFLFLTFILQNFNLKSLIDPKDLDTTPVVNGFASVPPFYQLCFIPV
compound,measurement,setting,value
O=C(NN=C(S)NC1CCCCC1)c1ccccc1O,IC50,[1],> 122 µM (inactive)
Cc1ccc(-n2c(SCC(=O)Nc3cccc(S(N)(=O)=O)c3)nc3ccccc32)cc1,IC50,[2],> 69.5 µM (inactive)
same,IC50,[3],> 69.5 µM (inactive)
O=C(N=CNOCc1ccc(Cl)cc1Cl)NOCc1ncc(C(F)(F)F)cc1Cl,AC50,[4],4.02 µM (active)
same,IC50,[2],12.9 µM (inactive)
O=C(NC=NOCc1ccc(Cl)cc1Cl)NOCc1ncc(C(F)(F)F)cc1Cl,IC50,[3],> 69.5 µM (inactive)
O=C(NNC(=S)NC(=O)c1ccccc1[N+](=O)[O-])c1ccccc1Cl,IC50,[1],115 µM (inactive)
Cc1ccccc1OCC(=O)NNC(=S)NC(=O)c1ccccc1[N+](=O)[O-],IC50,[1],64.9 µM (inactive)
CN(c1ccc(C(=O)NCCSCc2ccccc2)cc1)S(=O)(=O)c1ccccc1,AC50,[5],> 100 µM (inactive)
CN(C)CCCn1c2c3ccccc3ccc2c2oc(=O)c3ccccc3c21,AC50,[6],0.794 µM (inconclusive)
same,EC50,[7],> 99 µM (inactive)
same,EC50,[8],> 99 µM (inactive)
same,AC50,[9],< 0.681 µM (active)
Cc1ccc(N/C(C(Cl)=C(Cl)Cl)=C(/Cl)[N+](=O)[O-])c(C)c1,AC50,[5],> 100 µM (inactive)
CC(C)C[C@H](NC(=O)c1[nH]cnc1C(=O)NC(c1ccccc1)c1ccccc1)C(=O)OCc1ccccc1,IC50,[2],19.4 µM (inactive)
CC(C)C[C@H](NC(=O)c1nc[nH]c1C(=O)NC(c1ccccc1)c1ccccc1)C(=O)OCc1ccccc1,IC50,[3],> 69.5 µM (inactive)
CC1=NN(c2nc(-c3ccccc3)cs2)C(=O)C1,EC50,[10],16.9 µM (active)
same,EC50,[11],10 µM (active)
same,EC50,[12],> 150 µM (not active)
same,AC50,[13],7.99 µM (active)
same,EC50,[14],6.75 µM (active)
same,AC50,[5],> 100 µM (inactive)
Cc1ccc2c(c1)NC(=O)[C@@]1(C)[C@@H](c3ccccc3)[C@H]3COc4ccccc4[C@@H]3N1C2=O,IC50,[2],> 69.5 µM (inactive)
same,IC50,[3],> 69.5 µM (inactive)
C[C@H]1CN([C@@H](C)CO)C(=O)c2cc(NS(=O)(=O)c3ccccc3)ccc2O[C@@H]1CN(C)Cc1ccc(Oc2ccccc2)cc1,AC50,[15],15.7 µM (active)
same,AC50,[16],8.52 µM (active)
C[C@@H]1CCCCO[C@H](CN(C)Cc2ccc(C(F)(F)F)cc2)[C@H](C)CN([C@H](C)CO)C(=O)c2cc(NC(=O)Cc3ccccc3)ccc2O1,AC50,[15],6.16 µM (active)
same,AC50,[17],26.8 µM (active)
same,AC50,[18],43.9 µM (active)
same,AC50,[19],34.7 µM (active)
C[C@@H]1CCCCO[C@@H](CN(C)C(=O)NC2CCCCC2)[C@H](C)CN([C@@H](C)CO)C(=O)c2cc(NC(=O)Nc3ccc(C(F)(F)F)cc3)ccc2O1,AC50,[15],3.5 µM (active)
same,AC50,[16],5.99 µM (active)
same,AC50,[17],38 µM (active)
same,AC50,[19],47.1 µM (active)

# — ChEMBL document CHEMBL1201862, “PubChem BioAssay data set” (2004)
